ChEMBL document CHEMBL4811250, “Discovery and Optimization of 2H-1λ2-Pyridin-2-one Inhibitors of Mutant Isocitrate Dehydrogenase 1 for the Treatment of Cancer” (J Med Chem, 2021)

What was measured:
[1] = molecular target: Isocitrate dehydrogenase [NADP] cytoplasmic (Homo sapiens, UniProt O75874, R132C); experiment: Inhibition of IDH1 R132C mutant (unknown origin) assessed as reduction in NADPH consumption using alpha-KG as substrate incubated for 5 mins by diaphorase/resazurin-coupled system
[2] = molecular target: Isocitrate dehydrogenase [NADP] cytoplasmic (Homo sapiens, UniProt O75874, R132H); experiment: Inhibition of IDH1 R132H mutant (unknown origin) assessed as reduction in NADPH consumption using alpha-KG as substrate incubated for 5 mins by diaphorase/resazurin-coupled system
[3] = tested on: Isocitrate dehydrogenase [NADP] cytoplasmic (Homo sapiens), O75874 [R132C]; experiment: Inhibition of IDH1 R132C mutant (unknown origin) assessed as reduction in NADPH consumption using alpha-KG as substrate at 38 uM incubated for 5 mins by diaphorase/resazurin-coupled system relative to control
[4] = tested on: Isocitrate dehydrogenase [NADP] cytoplasmic (Homo sapiens), O75874 [R132H]; experiment: Inhibition of IDH1 R132H mutant (unknown origin) assessed as reduction in NADPH consumption using alpha-KG as substrate at 38 uM incubated for 5 mins by diaphorase/resazurin-coupled system relative to control
Isocitrate dehydrogenase [NADP] cytoplasmic (Homo sapiens), O75874 [R132H], sequence (O75874 whole entry R132H): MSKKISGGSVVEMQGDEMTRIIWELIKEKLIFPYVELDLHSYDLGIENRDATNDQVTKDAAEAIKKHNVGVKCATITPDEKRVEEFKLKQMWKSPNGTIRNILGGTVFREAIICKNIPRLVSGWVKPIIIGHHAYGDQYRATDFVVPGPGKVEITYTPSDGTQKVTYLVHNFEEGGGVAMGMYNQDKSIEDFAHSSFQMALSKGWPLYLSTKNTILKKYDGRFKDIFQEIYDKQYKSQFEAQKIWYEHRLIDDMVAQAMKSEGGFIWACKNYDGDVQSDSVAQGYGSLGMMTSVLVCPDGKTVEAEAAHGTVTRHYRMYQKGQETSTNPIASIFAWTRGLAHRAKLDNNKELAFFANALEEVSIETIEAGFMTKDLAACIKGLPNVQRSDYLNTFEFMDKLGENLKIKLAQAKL

Isocitrate dehydrogenase [NADP] cytoplasmic (Homo sapiens), O75874 [R132C], sequence (O75874 whole entry R132C): as the sequence (O75874 whole entry R132H) above, with H132C counted along it
Isocitrate dehydrogenase [NADP] cytoplasmic (Homo sapiens, UniProt O75874, R132C), sequence (O75874 2-414 R132C limits assumed): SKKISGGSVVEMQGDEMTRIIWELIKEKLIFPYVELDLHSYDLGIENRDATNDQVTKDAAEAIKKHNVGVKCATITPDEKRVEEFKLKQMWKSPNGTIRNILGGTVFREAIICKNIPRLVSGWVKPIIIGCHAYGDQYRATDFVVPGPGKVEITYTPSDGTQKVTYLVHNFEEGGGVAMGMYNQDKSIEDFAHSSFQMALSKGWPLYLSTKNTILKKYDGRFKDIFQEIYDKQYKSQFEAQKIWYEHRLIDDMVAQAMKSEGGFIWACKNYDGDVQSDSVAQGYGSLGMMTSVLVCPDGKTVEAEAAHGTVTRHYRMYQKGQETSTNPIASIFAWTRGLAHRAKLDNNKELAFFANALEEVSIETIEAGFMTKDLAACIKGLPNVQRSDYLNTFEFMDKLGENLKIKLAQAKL
Isocitrate dehydrogenase [NADP] cytoplasmic (Homo sapiens, UniProt O75874, R132H), sequence (O75874 2-414 R132H limits assumed): as the sequence (O75874 2-414 R132C limits assumed) above, with C131H counted along it

IC50 [1] [nM] | IC50 [2] [nM] | inhibition [3] [%] | inhibition [4] [%] | SMILES
470 | 1100 | 77 | 80 | CC(C)Oc1ccccc1-n1c2c(cc(-c3nc(-c4ccc(Cl)cc4)cs3)c1=O)C(=O)CC(C)(C)C2
410 |  | 81 | 88 | CCOc1ccccc1-n1c2c(cc(-c3nc(-c4ccc(Cl)cc4)cs3)c1=O)C(=O)CC(C)(C)C2
240 | 690 | 82 | 89 | CCc1cccc(CC)c1-n1c2c(cc(-c3nc(-c4ccc(Cl)cc4)cs3)c1=O)C(=O)CC(C)(C)C2
14000 | 12000 | 86 | 108 | COc1ccc(C(=O)O)cc1-n1c2c(cc(-c3nc(-c4ccc(Cl)cc4)cs3)c1=O)C(=O)CC(C)(C)C2
11000 | 4600 | 105 | 96 | CC1(C)CC(=O)c2cc(-c3nc(-c4ccc(Cl)cc4)cs3)c(=O)n(-c3ccccc3C(=O)O)c2C1
> 38000 | > 38000 |  |  | COc1ccc(-n2c3c(cc(-c4nc(-c5ccc(Cl)cc5)cs4)c2=O)C(=O)CC(C)(C)C3)c(OC)c1
> 38000 | > 38000 |  |  | CC1(C)CC(=O)c2cc(-c3nc(-c4ccc(Cl)cc4)cs3)c(=O)n(C3CCCCC3)c2C1
64 | 160 | 75 | 85 | CCOc1ccc(OCC)c(-n2c3c(cc(-c4nc(-c5ccc(Cl)cc5)cs4)c2=O)C(=O)CC(C)(C)C3)c1
> 38000 | > 38000 |  |  | COc1ccc(OC)c(-n2c3c(cc(-c4ncc(-c5ccc(Cl)cc5)s4)c2=O)C(=O)CC(C)(C)C3)c1
> 38000 | > 38000 |  |  | COc1ccncc1-n1c2c(cc(-c3nc(-c4ccc(Cl)cc4)cs3)c1=O)C(=O)CC(C)(C)C2
> 38000 | > 38000 |  |  | COc1ccc(OC)c(-n2c(C)ccc(-c3nc(-c4ccc(Cl)cc4)cs3)c2=O)c1
> 38000 | > 38000 |  |  | COc1ccc(OC)c(-n2c3c(cc(-c4ccc(-c5ccccc5)cc4)c2=O)C(=O)CC(C)(C)C3)c1
160 | 390 | 86 | 76 | CCOc1cccc(OCC)c1-n1c2c(cc(-c3nc(-c4ccc(Cl)cc4)cs3)c1=O)C(=O)CC(C)(C)C2
> 38000 | > 38000 |  |  | COc1ccc(OC)c(-n2c3c(cc(-c4cccc(-c5ccc(Cl)cc5)c4)c2=O)C(=O)CC(C)(C)C3)c1
2500 |  | 94 | 50 | COc1ccc(OC)c(-n2c3c(cc(-c4nc5ccc(Cl)cc5s4)c2=O)C(=O)CC(C)(C)C3)c1
1000 | 1600 | 85 | 84 | COc1ccc(OC)c(-n2c3c(cc(-c4nc(-c5ccc(Cl)cc5)cs4)c2=O)C(=O)CC(C)(C)C3)c1
2000 | 910 | 108 | 102 | COc1cccc(C(=O)O)c1-n1c2c(cc(-c3nc(-c4ccc(Cl)cc4)cs3)c1=O)C(=O)CC(C)(C)C2
1700 | 3000 | 76 | 96 | COc1ccc(OC)c(-n2c3c(cc(-c4nc(-c5ccc(Cl)cc5)cs4)c2=O)C=CC(C)(C)C3)c1
> 38000 |  |  | 41 | COc1ccc(OC)c(-n2c3c(cc(-c4cn(-c5ccc(Cl)cc5)cn4)c2=O)C(=O)CC(C)(C)C3)c1
160 | 56 |  |  | CCc1ccccc1-n1c(C=C(C)C)c(C(=O)N2CCNCC2)cc(-c2nc(-c3ccc(Cl)cc3)cs2)c1=O

Continued, compound first:

SMILES | IC50 [1] [nM] | IC50 [2] [nM] | inhibition [3] [%] | inhibition [4] [%]
CCc1cccc(CC)c1-n1c(CC2CCOC2)c(C(=O)N2CCNCC2)cc(-c2nc(-c3ccc(Cl)cc3)cs2)c1=O (stereo not given) | 130 | 75 | 91 | 105
CCc1cccc(CC)c1-n1c(C)c(C(=O)NCCNC)cc(-c2nc(-c3ccc(Cl)cc3)cs2)c1=O | 320 | 870 | 96 | 101
CCc1cccc(CC)c1-n1c(C)c(C(=O)N2CCN(C)CC2)cc(-c2nc(-c3ccc(Cl)cc3)cs2)c1=O | 1200 | 2900 | 86 | 88
CCc1cccc(CC)c1-n1c(C=C(C)C)c(C(=O)N2CCNC(CC)C2)cc(-c2nc(-c3ccc(Cl)cc3)cs2)c1=O (stereo not given) | 72 | 100 |  | 
CCc1ccc(C)cc1-n1c(C=C(C)C)c(C(=O)N2CCNCC2)cc(-c2nc(-c3ccc(Cl)cc3)cs2)c1=O | 110 | 44 |  | 
CCc1cccc(CC)c1-n1c(C)c(C(=O)NCCOC)cc(-c2nc(-c3ccc(Cl)cc3)cs2)c1=O | 730 | 2100 | 102 | 92
CCc1cccc(CC)c1-n1c(C)c(C(=O)NCC(C)C)cc(-c2nc(-c3ccc(Cl)cc3)cs2)c1=O | 810 | > 38000 | 56 | 
CCc1cccc(CC)c1-n1c(CCOC)c(C(=O)N2CCNCC2)cc(-c2nc(-c3ccc(Cl)cc3)cs2)c1=O | 340 | 140 | 92 | 102
CCc1cccc(CC)c1-n1c(C=C(C)C)c(C(=O)N2CCNC(C(F)(F)F)C2)cc(-c2nc(-c3ccc(Cl)cc3)cs2)c1=O (stereo not given) | 130 | 360 |  | 
CCc1cccc(CC)c1-n1c(C=C(C)C)c(C(=O)N2CCNC(CO)C2)cc(-c2nc(-c3ccc(Cl)cc3)cs2)c1=O (stereo not given) | 60 | 49 |  | 
COc1ccc(OC)c(-n2cccc(-c3nc(-c4ccc(Cl)cc4)cs3)c2=O)c1 | > 38000 | > 38000 |  | 
CCc1cccc(CC)c1-n1c(C=C(C)C)c(C(=O)N2CCNC(C(N)=O)C2)cc(-c2nc(-c3ccc(Cl)cc3)cs2)c1=O (stereo not given) | 42 | 94 |  | 
CCc1cccc(CC)c1-n1c(C(C)C)c(C(=O)N2CCNCC2)cc(-c2nc(-c3ccc(Cl)cc3)cs2)c1=O | 390 | 420 | 92 | 102
CC(C)=Cc1c(C(=O)N2CCNCC2)cc(-c2nc(-c3ccc(Cl)cc3)cs2)c(=O)n1-c1ccccc1 | 3200 | 330 |  | 
COc1ccc(OC)c(-n2c3c(cc(C(=O)NCc4ccc(Cl)cc4)c2=O)C(=O)CC(C)(C)C3)c1 | > 38000 |  |  | 35
CCc1cccc(CC)c1-n1c(C=C(C)C)c(C(=O)N2CC3(CNC3)C2)cc(-c2nc(-c3ccc(Cl)cc3)cs2)c1=O | 64 | 240 |  | 
CCOC(=O)c1cc(-c2nc(-c3ccc(Cl)cc3)cs2)c(=O)n(-c2c(CC)cccc2CC)c1-c1ccccc1 | > 38000 | > 38000 |  | 
CCc1cccc(CC)c1-n1c(C=C(C)C)c(C(=O)N2CCNC(C#N)C2)cc(-c2nc(-c3ccc(Cl)cc3)cs2)c1=O (stereo not given) | 56 | 160 |  | 
CCc1cccc(Cl)c1-n1c(C=C(C)C)c(C(=O)N2CCNCC2)cc(-c2nc(-c3ccc(Cl)cc3)cs2)c1=O | 55 | 44 |  | 
CCc1cccc(C)c1-n1c(C=C(C)C)c(C(=O)N2CCNCC2)cc(-c2nc(-c3ccc(Cl)cc3)cs2)c1=O | 2200 | 270 |  | 
COc1ccc(OC)c(-n2c3c(cc(-n4cc(-c5ccccc5)cn4)c2=O)C(=O)CC(C)(C)C3)c1 | > 38000 |  |  | 31
